This test has as its target Chaperone protein DnaK (Escherichia coli (strain K12)) (UniProt P0A6Y8). Description: E. coli DnaK SBD ligand binding – biophysical, NMR, chaperone (AID 1033). The note with it: Purified DnaK SBD.

Calls of active or inactive are those of the source. How the calls were made is not given here. Some results are limits rather than exact numbers.

Chain of Chaperone protein DnaK (Escherichia coli (strain K12)) (P0A6Y8 whole entry, looked up): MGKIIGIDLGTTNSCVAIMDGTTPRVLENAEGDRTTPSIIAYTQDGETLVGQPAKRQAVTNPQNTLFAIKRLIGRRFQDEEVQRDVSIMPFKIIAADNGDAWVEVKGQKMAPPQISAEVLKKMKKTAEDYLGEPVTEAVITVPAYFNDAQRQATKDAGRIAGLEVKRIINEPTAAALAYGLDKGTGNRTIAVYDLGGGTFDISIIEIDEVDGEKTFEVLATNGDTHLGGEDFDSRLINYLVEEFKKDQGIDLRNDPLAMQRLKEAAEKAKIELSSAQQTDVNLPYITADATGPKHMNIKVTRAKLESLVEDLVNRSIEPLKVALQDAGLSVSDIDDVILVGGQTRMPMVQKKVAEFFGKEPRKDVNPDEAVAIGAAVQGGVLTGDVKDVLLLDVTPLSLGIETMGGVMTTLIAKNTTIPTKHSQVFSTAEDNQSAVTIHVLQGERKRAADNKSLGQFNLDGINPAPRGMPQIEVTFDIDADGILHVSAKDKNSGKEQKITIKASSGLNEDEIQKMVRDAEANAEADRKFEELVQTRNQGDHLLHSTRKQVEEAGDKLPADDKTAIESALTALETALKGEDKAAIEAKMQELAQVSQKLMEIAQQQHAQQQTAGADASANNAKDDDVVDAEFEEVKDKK

By Kd is commonly meant the constant that tells how readily two partners part at equilibrium. Take `O=c1ccn([C@@H]2O[C@H](COP(=O)(O)OP(=O)(O)OP(=O)(O)O)[C@@H](O)[C@H]2O)c(=O)[nH]1`: the Kd is > 4 mM (inactive). For `NC(=O)CSc1nnc2ccc3ccccc3n12`, the Kd was > 4 mM (inactive). With `Cc1onc(-c2ccc(F)cc2)c1C(=O)O` the figure was > 4 mM (inactive). With `CCCCCC(=O)Cc1cc(O)cc(O)c1C(=O)Oc1cc(CC(=O)CCCCC)c(C(=O)O)c(OC)c1` the figure was > 4 mM (inactive); with `Cn1[nH]c2nc3[nH]n(C)c(=O)c3c(-c3ccccc3)c2c1=O`, > 4 mM (inactive); with `NC(=O)CSc1nnc2ccc(-c3ccccn3)nn12`, > 4 mM (inactive). For the compound `O=c1cc(-c2ccc(O)cc2)oc2cc(O[C@@H]3O[C@H](CO)[C@@H](O)[C@H](O)[C@H]3O[C@@H]3OC[C@](O)(CO)[C@H]3O)cc(O)c12`, the Kd is > 4 mM (inactive).

Regarding `CN1CCN(c2cc(=O)n(C)c(=O)[nH]2)CC1`, the Kd is > 4 mM (inactive).

`Cc1nnc(N2CCN(Cc3ccccc3)CC2)[nH]c1=O`: the Kd is > 4 mM (inactive).

Regarding `OCC1COc2ccccc2O1` (stereo not drawn), the Kd is > 4 mM (inactive). For `Cc1cc2cc(N)ccc2[nH]1`, the Kd was > 4 mM (inactive). With `O=C1COc2ccc(C(=O)c3ccccc3)cc2CN1` the figure was > 4 mM (inactive); with `Cn1nc(C(=O)N2CCCC2)c2ccccc2c1=O`, > 4 mM (inactive); with `C/C=C/C=N/NC(=O)c1ccc(=O)n(C)c1`, > 4 mM (inactive). The result for `CN1CCN(C(=O)c2ccco2)CC1` reads > 4 mM (inactive); that for `O=C(NC1CC1)c1ccccc1[N+](=O)[O-]`, > 4 mM (inactive); that for `CC1=CC(=O)NC2C=CC=CC12` (stereo not drawn), > 4 mM (inactive). With `COC(=O)[C@@]1(C)CCC[C@]2(C)c3ccc(O)c(C(C)C)c3CCC12` (stereo partly drawn), the Kd was > 4 mM (inactive).

With `CC(=O)O[C@H]1C[C@@H](OC(C)=O)C(C)(C)C2C[C@@H](OC(C)=O)[C@]3(C)C([C@H](OC(C)=O)C[C@@]4(C)[C@H](c5ccoc5)OC(=O)[C@H]5O[C@]543)[C@]21C` (stereo partly drawn), the Kd was > 4 mM (inactive). The result for `O=c1c2ccccc2nc(-c2ccco2)n1-c1nccs1` reads > 4 mM (inactive); that for `NC(=O)C1CCN(C(=O)CN2CCc3ccccc32)CC1`, > 4 mM (inactive); that for `Cc1ccccc1N1C(=O)CC(=O)NC1=O`, > 4 mM (inactive). With `CC(=O)Nc1nnc(-c2ccccc2)o1` the figure was > 4 mM (inactive); with `COc1ccc(S(=O)(=O)N2CCC(C(N)=O)CC2)cc1`, > 4 mM (inactive). The result for `O=C1CN2C(=N1)N(Cc1ccccc1)c1ccccc12` reads > 4 mM (inactive). As for `Cc1ccccc1NS(=O)(=O)c1ccc(F)cc1`, the Kd is 0.2 mM. With `CN1CCC(N2CCCC(C(N)=O)C2)CC1` (stereo not drawn) the figure was > 4 mM (inactive); with `CS(=O)(=O)Nc1ccc(C(=O)N2CCCCC2)cc1`, > 4 mM (inactive). The result for `Cc1nc2ccccc2c(=O)n1/N=C/c1ccco1` reads > 4 mM (inactive); that for `Nc1ccc(OC(F)(F)F)cc1`, > 4 mM (inactive); that for `Cc1ncc(CC(=O)O)s1`, > 4 mM (inactive).

For `CC(C)(C)NC(=O)CN1C(=O)c2ccccc2S1(=O)=O`, the Kd is > 4 mM (inactive). `Cc1nn(-c2ccccc2)nc1C(N)=O`: the Kd was > 4 mM (inactive). The result for `COc1cc([C@@H]2c3cc4c(cc3[C@H](O)[C@H]3COC(=O)[C@H]23)OCO4)cc(OC)c1OC` reads > 4 mM (inactive). With `Cc1ccccc1CSc1nncn1N` the figure was > 4 mM (inactive).

Consider `O=C1CC[C@]23/C=C/C(=O)NCCCCNCCCNC(=O)/C=C/c4ccc(c2c4)O[C@@H]3C1`, for which the Kd is > 4 mM (inactive). With `O=c1[nH]c(O)c(C=NC2CC2)c(=O)[nH]1` the figure was > 4 mM (inactive); with `O=C1C2CC=C(Cl)CC2C(=O)N1c1ccccc1O` (stereo not drawn), > 4 mM (inactive).
